Experimental data as given in patent US20240010681A1, “PEPTIDES AND METHODS OF USE” (REALTA LIFE SCIENCES, INC., priority 2020, published 2024).

Legend:
MPO (myeloperoxidase) = MPO (myeloperoxidase) (Homo sapiens, UniProt P05164); experiment: ELISA-type plate binding assay, MPO (positive control ligand); details: in human plasma
[1] = 1 hour after IVT injection; compared to saline
two-hit ALI model = experiment: Lung histology (H&E) and ImageJ lung injury score in two-hit ALI rat model; assay type: in vivo
Procedure: The inventors' previously developed two-hit ALI model is initiated by infusion of LPS (first hit) into Wistar rats followed 30 minutes later with transfusion of 30% incompatible erythrocytes (second hit) and sacrifice of the animals 4 hours later. […] Lungs were isolated from animals four hours after the second hit and tissues evaluated by H&E staining.
To determine the level of lung tissue protection by RLS-0071 in this model, grading of H&E sections for cell wall thickening for the different treatment groups was performed. Images of randomized microscopy fields were converted to black and white and quantified by ImageJ (NIH) analysis. The ratio of black to white pixels was then determined as a measure of lung damage: as lung damage increased, the alveolar walls thickened, shrinking the alveolar space (white space), resulting in a decrease in white pixels and increase in black pixels.

rat eye = experiment: Intravitreal safety study, slit lamp examination with modified MacDonald-Shadduck Ocular Grading; assay type: in vivo; design: key to Conjunctiva pathology score / Anterior Chamber pathology score / Iris pathology score / Cornea pathology score: 0: no pathology; 1: slight pathology; 2: moderate pathology; 3/4: severe pathology; details: for Anterior Chamber pathology score / Conjunctiva pathology score / Cornea pathology score / Iris pathology score: rats 1-4
Procedure: Safety study. […] A saline control was administered to the left eye. For this procedure, animals were anesthetized with isoflurane and also received the topical anesthetic proparacaine. Additionally, animals received the topical antibiotic tobramycin after injection. Slit lamp examinations were performed at the indicated time points up to 72 hours post-injection and pathology graded using a modified MacDonald-Shadduck Ocular Grading system with the following scoring scale: 0, no pathology; 1, slight pathology; 2, moderate pathology; 3/4, severe pathology.

[2] = 30 min after IVT 160 mg/ml in 5 microliters
[3] = 2 hour after IVT 160 mg/ml in 5 microliters
[4] = 24 hour after IVT 160 mg/ml in 5 microliters
[5] = 48 hour after IVT 160 mg/ml in 5 microliters
[6] = 72 hour after IVT 160 mg/ml in 5 microliters
[7] = Pre-IVT (baseline), eye assigned to RLS-0071

Chain of MPO (myeloperoxidase) (P05164 49-745, species assumed): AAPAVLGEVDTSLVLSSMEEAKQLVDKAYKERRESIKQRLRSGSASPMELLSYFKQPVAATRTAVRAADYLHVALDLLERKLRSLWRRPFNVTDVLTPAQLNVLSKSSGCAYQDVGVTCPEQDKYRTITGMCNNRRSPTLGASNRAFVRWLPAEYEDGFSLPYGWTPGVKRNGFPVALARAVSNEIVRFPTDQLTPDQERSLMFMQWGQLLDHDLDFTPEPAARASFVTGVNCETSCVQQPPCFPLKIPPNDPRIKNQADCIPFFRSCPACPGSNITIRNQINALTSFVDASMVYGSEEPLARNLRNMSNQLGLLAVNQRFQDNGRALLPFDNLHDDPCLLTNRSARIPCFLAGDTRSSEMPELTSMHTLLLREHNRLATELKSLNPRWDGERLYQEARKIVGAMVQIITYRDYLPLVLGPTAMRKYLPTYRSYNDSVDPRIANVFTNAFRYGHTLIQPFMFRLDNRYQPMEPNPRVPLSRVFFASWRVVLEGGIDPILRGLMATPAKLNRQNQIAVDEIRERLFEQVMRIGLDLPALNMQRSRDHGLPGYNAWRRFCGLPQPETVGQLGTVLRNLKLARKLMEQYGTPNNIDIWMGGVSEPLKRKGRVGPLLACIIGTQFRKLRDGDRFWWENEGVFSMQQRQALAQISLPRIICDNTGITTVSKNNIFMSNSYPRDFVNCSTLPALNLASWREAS

## CC[C@H](C)[C@H](N)C(=O)N[C@@H](C)C(=O)N[C@@H](CC(C)C)C(=O)N[C@H](C(=O)N[C@@H](CC(C)C)C(=O)N[C@@H](CCC(=O)O)C(=O)N1CCC[C@H]1C(=O)N[C@H](C(=O)N[C@@H](CS)C(=O)N[C@@H](CS)C(=O)N[C@@H](CCC(N)=O)C(=O)N[C@@H](CCC(=O)O)C(=O)N[C@@H](CCCNC(=N)N)C(=O)N[C@@H](C)C(=O)N[C@@H](C)C(=O)NCCOCCOCCOCCOCCOCCOCCOCCOCCOCCOCCOCCOCCOCCOCCOCCOCCOCCOCCOCCOCCOCCOCCOCCOCCC(=O)O)[C@@H](C)CC)[C@@H](C)CC [RLS-0071]
MPO (myeloperoxidase)
  binding to MPO: bound PA-dPEG24 in a dose-dependent manner
[1]
  DAB staining of retinal tissue: significant DAB signal
two-hit ALI model; 10 mg/kg prophylactic dose, p=0.002 vs untreated 2-hit animals
  lung injury score (ratio of black to white pixels): significant reduction in lung damage
two-hit ALI model; 40 mg/kg prophylactic dose, p<0.001 vs untreated 2-hit animals
  lung injury score (ratio of black to white pixels): this effect was enhanced
two-hit ALI model; prophylactic 10, 40 or 160 mg/kg 2 minutes before incompatible erythrocyte transfusion, lungs 4 h after second hit
  lung damage by H&E histology: marked reduction in lung damage
two-hit ALI model; rescue 40 mg/kg at 0.5, 60, 90, 120 and 180 min after second hit
  lung tissue architecture by H&E histology: lung tissue architecture resembling that of sham animals
two-hit ALI model; rescue 40 mg/kg at 0.5, 60, 90, 120 and 180 minutes after erythrocyte transfusion, all p<0.001
  lung injury score (ratio of black to white pixels): significant reduction in lung damage
Rat eye; 160 mg/kg (maximal deliverable dose) as printed, all 4 animals, up to 72 hours
  ocular toxicity by slit lamp after intravitreal injection: No RLS-0071 related toxicity was observed
Rat eye; [2]
  Anterior Chamber pathology score: 0
  Conjunctiva pathology score: 0
  Cornea pathology score: 0
  Iris pathology score: 0
Rat eye; [3]
  Anterior Chamber pathology score: 0
  Conjunctiva pathology score: 0
  Cornea pathology score: 0
  Iris pathology score: 0
Rat eye; [4]
  Anterior Chamber pathology score: 0
  Conjunctiva pathology score: 0
  Cornea pathology score: 0
  Iris pathology score: 0
Rat eye; [5]
  Anterior Chamber pathology score: 0
  Conjunctiva pathology score: 0
  Cornea pathology score: 0
  Iris pathology score: 0
Rat eye; [6]
  Anterior Chamber pathology score: 0
  Conjunctiva pathology score: 0
  Cornea pathology score: 0
  Iris pathology score: 0
Rat eye; [7]
  Anterior Chamber pathology score: 0
  Conjunctiva pathology score: 0
  Cornea pathology score: 0
  Iris pathology score: 0
